According to patent US20240307361A1, “METHOD FOR DIAGNOSING AND TREATING IRRITABLE BOWEL SYNDROME” (Centre for Chinese Herbal Medicine Drug Development Limited, priority 2023, published 2024):

How the values were obtained:
QGP-1 cells = assay: 5-HT production in QGP-1 cells; assay type: cell-based, human; conditions: 25-200 μM, 24 hours, FIG. 10D-E
Protocol: (§1) QGP-1 cells were cultured in RPMI 1640 medium supplemented with 10% fetal bovine serum (FBS). QGP-1 is a human pancreatic endocrine cell line that produces 5-HT. To evaluate the effects of phenylalanine, phenethylamine, and phenylacetic acid on 5-HT production, QGP-1 cells were treated with or without phenylalanine, phenethylamine, and phenylacetic acid at the indicated concentrations and times.
(§2) An Agilent 1290 Infinity II UPLC system coupled to a triple quadrupole (QQQ) 6470 mass spectrometer was used for targeted metabolomics profiling. A Waters BEH 2.1×50 mm C18 1.7 μm column with a pre-column was used. The mobile phase used in LC-MS-QQQ was solution A (water with 0.1% formic acid) and solution B (acetonitrile with 0.1% formic acid). The gradients were set as 2% B (0-0.5 min), 2%-30% B (0.5-4 min), […] B (4-6 min), 100% B (6-8 min), 100%-2% B (8-8.1 min) and maintain in 2% B (8.1-10 min). The MS data were collected and processed using Agilent software. The standard list, MRM transition, fragmentor, and collision energy are listed in (Table 3).

mouse intestinal tissues = assay: 5-HT production in mouse intestinal tissues cultured ex vivo; assay type: cell-based; conditions: 25 μM and 50 μM, p<0.05, FIG. 4A-B
Protocol: (§3) Mouse and human colonic tissues were collected as previously described. To investigate the effects of phenethylamine on 5-HT levels in mouse and human colon tissues, the colonic tissues were cut into small pieces (0.5 cm) and placed in a 12-well cell culture plate. Colon pieces were added to DMEM/F12 medium containing 5% fetal bovine serum, penicillin-streptomycin (1×), and gentamycin (20 μg/ml), followed by treatment with phenethylamine and EPPTB, as indicated. Colon pieces were incubated at 37° C. with 5% CO2 and 95% air. A 200 μL volume of medium was collected from each well at the indicated time points for the analysis of 5-HT.
as §2

human colonic tissues = assay: 5-HT production in human colonic tissues cultured ex vivo; assay type: cell-based; conditions: 50 μM, p<0.05, FIG. 10A
Protocol: as §3, §2

5-HT production = assay: Oral phenethylamine/tryptamine administration in mice: 5-HT levels, GI transit, fecal water content; assay type: in vivo, mouse; conditions: for GI transit / fecal water content / serum and intestinal 5-HT levels: mice, oral administration, 2, 5 and 10 mg/kg, p<0.01
Protocol: as §2
(§4) To study phenethylamine and tryptamine effects on 5-HT production, phenethylamine and tryptamine at a dosage of 2 mg/kg, 5 mg/kg and 10 mg/kg (dissolved in 0.5% CMC-Na, sodium carboxymethyl cellulose) were administered to mice by oral gavage. Mice treated with/without phenethylamine and tryptamine were sacrificed under isoflurane anesthesia. Biological samples including serum, duodenum, ileum, proximal colon and distal colon tissues and luminal contents in each intestinal segments were collected at indicated dosages and times and stored at −80° C. until analysis.
(§5) For the fecal pellet water content test, 1.5 mL Eppendorf tubes were pre-weighed and used to collect fecal pellets from mice immediately after defecation. The tubes were then closed to measure wet weight. Afterward, the tubes were opened and placed in an oven at 60° C. overnight to measure the dry weight. Fecal pellet water content was measured by subtracting the dry weight from the wet weight and normalizing it to the wet pellet mass. Fecal pellets from mice were also counted within 2 h of the defecation frequency test.
(§6) Carmine red assay: Mice were administered 300 μL of 6% carmine red solution (prepared by 0.5% methylcellulose) by oral gavage to measure the GI transit time after treatment with phenethylamine at the indicated dosages. The mice were placed on white sheet paper to track the red pellet in their cages after oral gavage. The total time taken for the appearance of the first red pellet after oral gavage was recorded as gut transit time.

PKA and CaMKII = assay: Western blot of PKA and CaMKII phosphorylation in colonic tissues of phenethylamine-treated mice; assay type: in vivo, mouse; conditions: colonic tissues of mice, 2, 5 and 10 mg/kg, p<0.05
Protocol: as §4
(§7) Colonic tissues were lysed in RIPA buffer containing protease inhibitor cocktails in a tissuelyzer. The tissue lysates were centrifuged at 15,000 rpm for 15 min at 4° C. and quantified by BCA kit for protein concentration. The protein content normalized supernatant was mixed with 5× loading buffer and heated at 98° C. in a dry bath for 10 min. The samples were evaluated according to the western blotting protocol (Abcam). The blots were incubated with HRP-conjugated anti-rabbit IgG or anti-mouse IgG and reacted with enhanced chemiluminescence.

[1] = Phenethylamine level in intestinal tissues and luminal content after oral gavage; assay type: in vivo, mouse; conditions: for concentration at 0 min / concentration at 15 min / concentration at 30 min: mouse, oral
Protocol: as §2, §4

TAAR1 [2] = biological target: T1, TAAR1 (Mus musculus, UniProt Q923Y8); assay: Phenethylamine in Taar1-/- mice and wild-type littermates; assay type: in vivo; conditions: Taar1-/- mice vs wild-type littermates, phenethylamine 10 mg/kg, p<0.05
T1 construct: is expressed in EC cells in the GI tract; from tissue; host or cells: living mice (conventional, antibiotic-treated, or wild-type littermates of Taar1 KO, C57Bl/6J)
T1 sequence (Q923Y8 whole entry, the tested form may be a part): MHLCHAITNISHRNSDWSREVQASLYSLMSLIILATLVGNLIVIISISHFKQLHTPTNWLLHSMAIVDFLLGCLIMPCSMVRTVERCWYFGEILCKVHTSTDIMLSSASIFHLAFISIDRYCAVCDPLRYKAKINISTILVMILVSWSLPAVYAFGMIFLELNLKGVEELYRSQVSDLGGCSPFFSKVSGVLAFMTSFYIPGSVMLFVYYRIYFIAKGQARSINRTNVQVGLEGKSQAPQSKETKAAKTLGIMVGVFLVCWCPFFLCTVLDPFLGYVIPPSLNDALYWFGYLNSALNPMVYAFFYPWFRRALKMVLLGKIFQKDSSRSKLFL
Protocol: as §5, §6
Taar1 (NM_053205) knockout mouse model (C57Bl/6J) was generated by CRISPR/Cas-mediated genome engineering. All the Taar1 KO mice and their wildtype littermates were genotyped using PCR and Southern blot [F1: […] (SEQ ID NO:3), R1: […] (SEQ ID NO:4), R2: […] (SEQ ID NO:5)]. The product size of F1 and R1 is 989 bp while the product size of F1 and R2 is 625 bp. […]

5-HTR4 = biological target: T2, 5-HTR4 (Homo sapiens, UniProt Q13639); assay: 5-HTR4 antagonist Piboserod on phenethylamine/tryptamine-stimulated 5-HT in QGP-1 cells; assay type: cell-based; conditions: 24 hours, FIG. 11M
T2 construct: endogenous in cells; host or cells: QGP-1
T2 sequence (Q13639 whole entry): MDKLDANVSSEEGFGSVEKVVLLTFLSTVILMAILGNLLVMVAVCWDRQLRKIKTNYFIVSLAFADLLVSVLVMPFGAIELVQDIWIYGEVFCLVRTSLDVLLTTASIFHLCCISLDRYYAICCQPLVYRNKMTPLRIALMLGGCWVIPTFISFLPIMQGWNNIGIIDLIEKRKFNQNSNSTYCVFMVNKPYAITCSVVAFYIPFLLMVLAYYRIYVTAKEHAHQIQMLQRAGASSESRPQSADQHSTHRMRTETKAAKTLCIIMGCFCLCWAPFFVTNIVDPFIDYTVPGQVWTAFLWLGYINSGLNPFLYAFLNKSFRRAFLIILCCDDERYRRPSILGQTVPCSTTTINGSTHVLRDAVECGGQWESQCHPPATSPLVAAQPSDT
Protocol: as §1

TAAR1 [3] = biological target: T1, TAAR1; assay: EPPTB in antibiotic-treated mice transplanted with IBS-D fecal microbiota (FMT); assay type: in vivo; conditions: EPPTB 10 mg/kg, p<0.05
Protocol: A broad-spectrum antibiotic mixture (ABX) containing vancomycin (100 mg/kg), neomycin (200 mg/kg), metronidazole (200 mg/kg), and ampicillin (200 mg/kg) was used to establish an antibiotic-treated mouse model. Briefly, the antibiotic mixture was administered to mice by oral gavage for 10 consecutive days prior to fecal microbial transplantation (FMT) or the colonization study. For the fecal pellet water content test, 1.5 mL Eppendorf tubes were pre-weighed and used to collect fecal pellets from mice immediately after defecation. The tubes were then closed to measure wet weight. Afterward, the tubes were opened and placed in an oven at 60° C. overnight to measure the dry weight. Fecal pellet water content was measured by subtracting the dry weight from the wet weight and normalizing it to the wet pellet mass. Fecal pellets from mice were also counted within 2 h of the defecation frequency test. Carmine red assay: […] The mice were placed on white sheet paper to track the red pellet in their cages after oral gavage. The total time taken for the appearance of the first red pellet after oral gavage was recorded as gut transit time. Fecal samples from IBS-D patients and HC participants (n=8/group) were prepared as suspensions in PBS at a concentration of (100 mg/mL). […] After the FMT, GI transit, stool consistency, and defecation frequency were measured. […]

TAAR1 [4] = biological target: T1, TAAR1; assay: EPPTB on phenethylamine-induced 5-HT elevation in mice intestine tissues cultured ex vivo; assay type: cell-based; conditions: EPPTB 50 μM, p<0.05, FIG. 5I
Protocol: as §3

TAAR1 [5] = biological target: T1, TAAR1; assay: EPPTB in antibiotic-treated mice colonized with R. gnavus (ATCC 29149); assay type: in vivo; conditions: EPPTB 10 mg/kg, p<0.05
Protocol: A broad-spectrum antibiotic mixture (ABX) containing vancomycin (100 mg/kg), neomycin (200 mg/kg), metronidazole (200 mg/kg), and ampicillin (200 mg/kg) was used to establish an antibiotic-treated mouse model. Briefly, the antibiotic mixture was administered to mice by oral gavage for 10 consecutive days prior to fecal microbial transplantation (FMT) or the colonization study.
R. gnavus (strain ATCC 29149) was first grown on tryptic soy broth (TSB) agar plates and cultured in TSB broth using a single colony. R. gnavus (strain ATCC 29149) was collected from the medium by centrifuging at 3,500 rpm for 10 min at room temperature. These bacterial strains were then reconstituted in 200 μL of sterilized phosphate-buffered saline and administered to antibiotic-treated mice by oral gavage. Fecal samples were collected daily to measure fecal phenethylamine levels in antibiotic-treated mice before and after oral administration of bacterial strains.
as §5, §6

TAAR1 [6] = biological target: T1, TAAR1; assay: TAAR1 antagonist EPPTB in phenethylamine-treated mice; assay type: in vivo; conditions: EPPTB 10 mg/kg, phenethylamine 10 mg/kg, p<0.05
Protocol: as §4, §5, §6, §7

[7] = serum of phenethylamine-treated mice, FIG. 5A

## N[C@@H](Cc1c[nH]c2ccccc12)C(=O)O [tryptophan]
QGP-1 cells
  5-HT levels in QGP-1 cells (precursors and metabolites): did not change the 5-HT levels

## O=C(O)Cc1ccccc1 [phenylacetic acid]
QGP-1 cells
  5-HT levels in QGP-1 cells (precursors and metabolites): did not change the 5-HT levels

## NCCc1c[nH]c2ccccc12 [tryptamine]
Mouse intestinal tissues
  5-HT production in mouse intestinal tissues: significantly enhanced 5-HT production
Human colonic tissues
  5-HT production in human colonic tissues: significantly enhanced 5-HT production
5-HT production
  GI transit: accelerated GI transit
  fecal water content: increased fecal water content
  serum and intestinal 5-HT levels: significantly elevated serum and intestinal 5-HT levels

## N[C@@H](Cc1ccccc1)C(=O)O [phenylalanine]
QGP-1 cells
  5-HT levels in QGP-1 cells (precursors and metabolites): did not change the 5-HT levels

## NCCc1ccccc1 [phenethylamine]
PKA and CaMKII
  phosphorylation of PKA and CaMKII: an increase in the phosphorylation of these proteins
Mouse intestinal tissues
  5-HT production in mouse intestinal tissues: significantly enhanced 5-HT production
Human colonic tissues
  5-HT production in human colonic tissues: significantly enhanced 5-HT production
5-HT production; mice, 2, 5 and 10 mg/kg, FIG. 11A-C
  circulating 5-HTP levels: increase in circulating 5-HTP levels in mice in a dose-dependent manner
5-HT production
  GI transit: accelerated GI transit
  fecal water content: increased fecal water content
  serum and intestinal 5-HT levels: significantly elevated serum and intestinal 5-HT levels
5-HT production; [7]
  5-HIAA/5-HT ratio: but not the 5-HIAA/5-HT ratio, were increased
  5-HT/5-HTP ratio: increased
  5-HTP/Trp ratio: increased
[1]; Duodenum, 15 min
  Phenethylamine level, Concentration: 1082 µg/g
[1]; Luminal content in duodenum, 15 min
  Phenethylamine level, Concentration: 1245 µg/g
[1]; Luminal content in duodenum, 30 min
  Phenethylamine level, Concentration: 1200 µg/g
[1]; luminal content of duodenum, Luminal content in duodenum
  concentration at 0 min: 3000 ng/g
[1]; luminal content of ileum, Luminal content in ileum
  concentration at 0 min: 1670 ng/g
[1]; luminal content of ileum, Luminal content in ileum, 15 min
  concentration at 15 min: 29700 ng/g
[1]; luminal content of ileum, Luminal content in ileum, 30 min
  concentration at 30 min: 9300 ng/g
[1]; luminal content of proximal colon, Luminal content in proximal colon
  concentration at 0 min: 3700 ng/g
[1]; luminal content of proximal colon, Luminal content in proximal colon, 15 min
  concentration at 15 min: 112000 ng/g
[1]; luminal content of proximal colon, Luminal content in proximal colon, 30 min
  concentration at 30 min: 58900 ng/g
[1]; Duodenum
  concentration at 0 min: 230 ng/g
[1]; Duodenum, 30 min
  concentration at 30 min: 879000 ng/g
[1]; Ileum
  concentration at 0 min: 240 ng/g
[1]; Ileum, 15 min
  concentration at 15 min: 24000 ng/g
[1]; Ileum, 30 min
  concentration at 30 min: 8000 ng/g
[1]; Proximal colon
  concentration at 0 min: 12000 ng/g
[1]; Proximal colon, 15 min
  concentration at 15 min: 116000 ng/g
[1]; Proximal colon, 30 min
  concentration at 30 min: 38000 ng/g
TAAR1 [2]
  phenethylamine-induced changes in 5-HT production, GI transit and secretion under genetic ablation of TAAR1: abolished phenethylamine-induced changes in 5-HT production, GI transit, and secretion

## indole acetic acid
QGP-1 cells
  5-HT levels in QGP-1 cells (precursors and metabolites): did not change the 5-HT levels

## CCCCN1CCC(CNC(=O)c2c3n(c4ccccc24)CCCO3)CC1 [Piboserod]
5-HTR4
  5-HT levels stimulated by phenethylamine or tryptamine: did not restore 5-HT levels
  tryptamine-stimulated 5-HT production: modest reduction of tryptamine-stimulated 5-HT production

## CCOc1cccc(NC(=O)c2ccc(N3CCCC3)c(C(F)(F)F)c2)c1 [EPPTB, N-(3-ethoxy-phenyl)-4-pyrrolidin-1-yl-3-trifluoromethyl-benzamide]
TAAR1 [3]
  pathological changes induced by transplantation of IBS-D fecal microbiota (colonic 5-HT, GI transit, defecation frequency): largely suppressed
TAAR1 [4]
  phenethylamine-induced 5-HT elevation in mice intestine tissues cultured ex vivo: suppressed
TAAR1 [5]
  R. gnavus-induced 5-HT elevation in serum: suppressed by EPPTB treatment
  R. gnavus-induced accelerated GI transit: suppressed by EPPTB treatment
  R. gnavus-induced increased fecal water content: suppressed by EPPTB treatment
TAAR1 [6]; mice
  phenethylamine-induced 5-HT production: suppressed
  phenethylamine-induced 5-HTP/Trp and 5-HT/5-HTP ratios: inhibited by EPPTB treatment
  phenethylamine-induced GI transit acceleration: suppressed
  phenethylamine-induced colonic secretion increase: suppressed
  phenethylamine-induced increased levels of serum 5-HTP: inhibited by EPPTB treatment
TAAR1 [6]; proximal colonic tissues of mice
  phenethylamine-induced activation of PKA and CaMKII: inhibited
